The results in this text go back to ChEMBL document CHEMBL1201862, “PubChem BioAssay data set” (2004).

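Following 48 hours of exposure in 96-well plates, responses at five concentrations were used to interpolate endpoints linearly. GI50 marks 50% less growth.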 The source made the active and inactive calls. Rule as the data show it: active = GI50 up to about 1.1 µM and inactive = higher.

Test systems include K562; EKVX; CAKI-1; HL-60; SW-620; TK-10; LOX IMVI; SK-MEL-5; HCC 2998; MOLT-4; RXF 393; U-251; 786-0; NCI-H226; NCI-H23; COLO 205; SK-OV-3; MDA-MB-435.
Common to all, as to experiment: NCI tumour cell line growth inhibition, 48 h

As to `CC(CCc1ccc2c(c1)c(N)c1ccc(N)cc1[n+]2[O-])CC(C)(C)C` (stereo not given), the GI50 in the test on K562 is 0.621 µM (active); with EKVX, 1.67 µM (inactive); in the test with CAKI-1, 1.47 µM (inactive); with HL-60 it was 1.3 µM (inactive); in the test with SW-620, 1.68 µM (inactive); in the test with TK-10, 1.83 µM (inactive). Besides, the GI50 was 1.52 µM (inactive) with LOX IMVI; 1.65 µM (inactive) in the test with SK-MEL-5; 1.55 µM (inactive) in the test with HCC 2998; 1.09 µM (active) in the test on MOLT-4; 2 µM (inactive) in the test on RXF 393; 1.38 µM (inactive) in the test with U-251. For the same compound, the GI50 with 786-0 is 1.5 µM (inactive); in the test on NCI-H226, 1.85 µM (inactive); in the test with NCI-H23 it was 1.31 µM (inactive); with COLO 205, 1.45 µM (inactive).
Regarding `O=c1cc(CO)oc2c3c(cc(O)c12)OCC(COC1OC(CO)C(O)C(O)C1O)=CC3` (stereo not given), the GI50 in the test with K562, with EKVX, in the test with CAKI-1, in the test on HL-60, in the test with SW-620 and in the test with TK-10 was > 100 µM (inactive) each time. Further, the GI50 in the test on LOX IMVI, with SK-MEL-5, in the test with HCC 2998, with MOLT-4, with RXF 393 and in the test on U-251 was > 100 µM (inactive) each time. Further, the GI50 in the test on SK-OV-3, in the test on 786-0, in the test with NCI-H226, in the test on NCI-H23 and in the test on COLO 205 was > 100 µM (inactive) each time.
Consider `CC1=C(C(=O)Nc2ccccc2)C(c2ccc(C(C)C)cc2)C(C(=O)Nc2ccccc2)=C(C)N1`, for which the GI50 in the test on K562 is 12.1 µM (inactive); in the test with EKVX it was 25.3 µM (inactive); in the test on CAKI-1, 21.9 µM (inactive); with HL-60 it was 9.59 µM (inactive); in the test with SW-620, 17.2 µM (inactive); with TK-10 it was 48.2 µM (inactive). The GI50 in the test with LOX IMVI was 15 µM (inactive); with SK-MEL-5, 12.9 µM (inactive); in the test on HCC 2998, 7.19 µM (inactive); in the test on MOLT-4, 4.86 µM (inactive); in the test with RXF 393 it was 11.8 µM (inactive); with U-251, 16 µM (inactive). The GI50 in the test with SK-OV-3 is 22.9 µM (inactive); with 786-0 it was 15 µM (inactive); in the test with NCI-H226 it was 21.3 µM (inactive); in the test with NCI-H23 it was 20 µM (inactive); with COLO 205, 12.9 µM (inactive).
For the compound `C=C1C(=O)OC2/C=C(\C)C(OC(C)=O)C3OC3C(C)(O)CC(OC(=O)/C(C)=C/C)C12` (stereo not given), the GI50 in the test with K562 was 4.35 µM (inactive); in the test on EKVX, 18.3 µM (inactive); with CAKI-1 it was 2.38 µM (inactive); in the test with HL-60, 2.51 µM (inactive); in the test with SW-620, < 0.01 µM (active); in the test with TK-10, 11.9 µM (inactive). Further, the GI50 in the test with LOX IMVI is 15.3 µM (inactive); in the test on SK-MEL-5, 13.7 µM (inactive); in the test with HCC 2998, 8.38 µM (inactive); in the test with MOLT-4 it was 5.05 µM (inactive); in the test with RXF 393 it was 3.85 µM (inactive); in the test with U-251 it was 12.1 µM (inactive). The GI50 in the test with SK-OV-3 was 20.1 µM (inactive); with 786-0, 4.73 µM (inactive); in the test with NCI-H226, 10 µM (inactive); in the test on NCI-H23, 12.8 µM (inactive); in the test on COLO 205 it was 3.86 µM (inactive).
For `CCOC(=O)/C(O)=C(/c1n[nH]c(=O)c2ccccc12)[N+](=O)[O-]`, the GI50 with K562 is > 100 µM (inactive); with EKVX it was 70.8 µM (inactive); with HL-60 it was > 100 µM (inactive); with SW-620 it was > 100 µM (inactive); in the test with TK-10 it was > 100 µM (inactive); in the test on LOX IMVI, > 100 µM (inactive). Also, the GI50 in the test with SK-MEL-5, in the test with HCC 2998, with MOLT-4, in the test on RXF 393, in the test with U-251 and with SK-OV-3 was > 100 µM (inactive) throughout. Also, the GI50 with 786-0, in the test on NCI-H226, in the test with NCI-H23 and in the test on COLO 205 was > 100 µM (inactive) in each case.
Take `Cc1cc(Cl)ccc1NC(=O)C1C(=O)N(c2ccc(Cl)cc2C)C(=O)/C1=N\N` (stereo not given): the GI50 in the test with K562 is 45.1 µM (inactive); in the test with EKVX, 57.5 µM (inactive); in the test on CAKI-1 it was 35.6 µM (inactive); in the test on HL-60 it was 24.5 µM (inactive); in the test with SW-620, 42.4 µM (inactive); in the test on TK-10 it was 34.3 µM (inactive). In addition, the GI50 with LOX IMVI was 51.2 µM (inactive); in the test with SK-MEL-5 it was 30.5 µM (inactive); with HCC 2998 it was 24.9 µM (inactive); in the test on MOLT-4, 27.9 µM (inactive); in the test on RXF 393 it was > 100 µM (inactive); in the test on U-251, 33 µM (inactive). Besides, the GI50 in the test with SK-OV-3 is 97.5 µM (inactive); with 786-0, 81.3 µM (inactive); with NCI-H226, 27 µM (inactive); with NCI-H23, 36.9 µM (inactive); in the test on COLO 205, 56.4 µM (inactive).
Consider `C[C@]12CC[C@H](O)CC1CCC[C@@H]2O` (stereo not given in full), for which the GI50 in the test on K562, in the test with EKVX, in the test on CAKI-1, with HL-60, in the test on SW-620 and in the test with TK-10 was > 100 µM (inactive) in each case. For the same compound, the GI50 in the test on LOX IMVI, in the test on SK-MEL-5, in the test on HCC 2998, with MOLT-4, in the test on RXF 393 and with U-251 was > 100 µM (inactive) each time. Besides, the GI50 in the test with SK-OV-3, in the test on 786-0, with NCI-H23 and with COLO 205 was > 100 µM (inactive) in each case.
Take `CCO/C=C1\N=C(c2ccc(Cl)c(Cl)c2)OC1=O`: the GI50 is > 100 µM (inactive) in the test on K562; 41 µM (inactive) with EKVX; > 100 µM (inactive) in the test on CAKI-1; > 100 µM (inactive) in the test with HL-60; > 100 µM (inactive) with SW-620; > 100 µM (inactive) in the test with TK-10. The GI50 in the test on LOX IMVI is > 100 µM (inactive); in the test with SK-MEL-5, > 100 µM (inactive); in the test on HCC 2998, > 100 µM (inactive); with MOLT-4, > 100 µM (inactive); in the test with RXF 393, 79.8 µM (inactive); in the test on 786-0 it was > 100 µM (inactive). Further, the GI50 was 30.5 µM (inactive) in the test on NCI-H226, > 100 µM (inactive) in the test on NCI-H23 and > 100 µM (inactive) in the test with COLO 205.
For `COC(=O)C1=C(C(=O)OC)C2(c3ccccc3)OC1(c1ccccc1)c1cc3ccccc3cc12`, the GI50 was 1.51 µM (inactive) with K562; 1.8 µM (inactive) with EKVX; 1.29 µM (inactive) in the test with CAKI-1; 0.45 µM (active) with HL-60; 1.76 µM (inactive) in the test with SW-620; 2.05 µM (inactive) in the test with TK-10. Besides, the GI50 in the test on LOX IMVI is 1.32 µM (inactive); in the test on SK-MEL-5 it was 2.21 µM (inactive); with HCC 2998, 1.95 µM (inactive); in the test on MOLT-4 it was 0.733 µM (active); in the test on RXF 393, 1.29 µM (inactive); in the test with U-251 it was 6.43 µM (inactive). The GI50 in the test on SK-OV-3 was 11.2 µM (inactive); in the test with 786-0 it was 1.4 µM (inactive); in the test with NCI-H23 it was 1.92 µM (inactive); in the test on COLO 205, 2.11 µM (inactive).
As for `N#CCCC(CC#N)N1CCN(CCO)CC1` (stereo not given), the GI50 with K562, in the test on EKVX, in the test on HL-60, with SW-620, in the test on TK-10 and in the test on SK-MEL-5 was > 100 µM (inactive) each time. Moreover, the GI50 in the test on HCC 2998, with MOLT-4, in the test with RXF 393, with U-251, in the test with SK-OV-3 and in the test with 786-0 was > 100 µM (inactive) each time. For the same compound, the GI50 in the test with NCI-H226, in the test with NCI-H23, in the test with COLO 205 and in the test with MDA-MB-435 was > 100 µM (inactive) throughout.
`CC(=O)O[C@H]1C(=O)[C@@]2(C)C([C@H](OC(=O)c3ccccc3)[C@]3(O)C[C@H](OC(=O)[C@H](O)[C@H](NC(=O)c4ccccc4)c4ccc(Cl)cc4)C(C)=C1C3(C)C)C1(OC(C)=O)CO[C@@H]1C[C@@H]2O` (stereo not given in full): the GI50 with K562 is 0.000807 µM (active); in the test on EKVX, 0.769 µM (active); in the test on CAKI-1 it was 0.151 µM (active); in the test on HL-60 it was < 0.0001 µM (active); in the test with SW-620 it was 0.000497 µM (active); in the test with TK-10, 0.0226 µM (active). For the same compound, the GI50 was < 0.0001 µM (active) in the test on LOX IMVI; 0.000736 µM (active) with SK-MEL-5; 0.000813 µM (active) in the test on HCC 2998; 0.01 µM (active) in the test on MOLT-4; 0.0149 µM (active) in the test on RXF 393; 0.00182 µM (active) in the test on U-251. Moreover, the GI50 in the test on SK-OV-3 is 0.00163 µM (active); in the test on 786-0 it was 0.00711 µM (active); with NCI-H226, 0.00229 µM (active); in the test with NCI-H23, 0.00104 µM (active); in the test with COLO 205, 0.00188 µM (active).
Turning to `c1ccc2c(c1)[nH]c1c[nH]c3c4cccnc4nc-3c12`, the GI50 in the test with K562 is 21.5 µM (inactive); in the test on EKVX, 19.9 µM (inactive); in the test with CAKI-1, 14.5 µM (inactive); in the test on HL-60, 17.5 µM (inactive); in the test with SW-620 it was 18.1 µM (inactive); with TK-10, 12.7 µM (inactive). Besides, the GI50 in the test with LOX IMVI was 19.5 µM (inactive); with SK-MEL-5, 19.4 µM (inactive); in the test with HCC 2998, 19 µM (inactive); with MOLT-4, 24.4 µM (inactive); in the test with RXF 393, 18.7 µM (inactive); in the test with 786-0 it was 17.1 µM (inactive). Also, the GI50 in the test on NCI-H226 was 25.2 µM (inactive); in the test with NCI-H23 it was 25.5 µM (inactive); with COLO 205 it was 15 µM (inactive).
